“Also recorded” adds a separate entry of the source.
Key:
EDL muscles [1] = test system: EDL muscles
Experimental: The experiment was conducted on seven Wistar rats aged two and a half months and weighing three hundred grams.
After annesthesia by ether, the EDL muscles (muscles of hind rat paws) were removed from the forefoot and mechanically damaged by applying a constant pressure on the entire length of the muscle, using a Pean forceps. The pressure was maintained for fifteen seconds, the forceps being closed at the second notch. The homogeneity of the lesion on the whole of the muscle was controlled by following its infarction for 30 seconds. The muscle was then put back in position and the skin sutured by linen thread.
The regeneration controls were injected with the same quantity of PBS alone. Depending on the experiments, injection took place before or after the lesion of the muscle. The 200 μl were injected in one minute and the product's diffusion was ensured by leaving the muscle for two minutes before putting it back in the forefoot.
The treated muscles and the controls were collected after 8 days of regeneration and then immediately frozen at -150° C. in isopentane. Frozen transverse sections of 10 μm thickness were made in the median region of the muscle. The dried sections were colored by Gomori trichrome.
The morphometric analysis of the number of fibers and of their diameter was performed on micrographic montages corresponding to a transverse half-section of muscle.

beta TGF = biological target: T1, beta TGF (Homo sapiens, UniProt P01137); assay: protection of beta TGF against degradation by trypsin, beta TGF activity read on CCL64 cells; type: cell-based; conditions: for % inhibiting activity of the incorporation of tritiated thymidine in CCL64 cells: 37° C. 10 min, dilution 50 times
T1 construct: from tissue; host or cells: human blood platelets
Experimental: In order to measure the capacity of certain CMDBSs to interact with members of the beta TGF family and, by means of this interaction, to protect the beta TGFs, a grading test was devised.
The beta 1 TFG is prepared from human blood platelets according to a protocol described in numerous publications (for example Growth factors and their receptors, 1992, vol 1 pp 419-472, written by A. Roberts and M. Sporn, edited by A. Roberts and M. Sporn, and published by Springer Verlag Berlin) and are commonly used by persons of ordinary skill in the art. The beta TGF biological activity test used in this example is that of the inhibition of CCL64 cells (from the American Tissue Culture Collection). This inhibition is measured by the ability of the beta TGF to inhibit the incorporation of tritiated thymidine in a dose dependent manner in these CCL64 cells stimulated by the FGF or by fetal calf serum according to the protocol described by Van Zolen in Progress in Growth Factor Research, 1990, 2, pp 131 to 152.
Two doses of beta TGF are used, one corresponding to the 50% inhibition capacity of the incorporation of tritiated thymidine (defined as the inhibiting activity unit) and the other corresponding to the 100% inhibition capacity.
The final volume of the incubated solution is adjusted to 1 ml and incubation is carried out at 37° C. for a varying length of time (10 minutes in the example described (Table 1)).
20 μl samples of are taken from each of the incubation reactions and added to CCL64 cells cultivated in 24-well plates, each well containing milliliter of culture medium according to the aforementioned protocol described by E. Zohlen. In these conditions, the final concentration of beta TGF per well is 1 ng/ml.
The incubation mixture contained 50 ng of beta TGF (in 0.1% bovine serum albumin) and trypsin (500 μg). Mesoglycan or sulodexide or dextran sulfate or dextran or sucrase are used at the dose of 5000 μg.
The beta TGF biological activity is measured as described above after a dilution of 50 times and by using CCL64 cells.

FGF = assay: semi-quantitative evaluation of FGF protection against trypsin, densitometry of radio-labelled FGF; type: biochemical; conditions: FGF + trypsin + polymer; radio-labelled FGF found compared to quantity deposited
Experimental: As described above, a constant quantity of radioactive FGF is incubated under various conditions. After autoradiography of the reaction products, the non degraded quantity of radioactive FGF is quantified by densitometry. The values correspond to the percentage of radio-labelled FGF found, compared to the quantity deposited at the start of reaction (Table 5).

coagulation = assay: anticoagulant activity
leukocytic elastase [2] = conditions: cited from earlier work
EDL muscles [3] = assay: regeneration of skeletal muscle after deinnervation followed by crushing; type: in vivo, Wistar rats; conditions: for Ratio regenerated/ contralateral intact (muscle weight): 10 μg injected after deinnervation and crushing; for % ratio treated/ ratio degenerated: 10 μg injected, PBS-treated muscle = 100
Experimental: The protocol is exactly the same as that described in Example 4 but the crushing of the muscle is preceded by section of the motor nerve at the entrance of the muscle.
The substances are in saline phosphate buffer solution (PBS).
Injection takes place after deinnervation and crushing , using a 50 μl microsyringe equipped with a flexible needle 60 mm in length and 0.4 mm in diameter. Two injections are carried out at an interval of 2 min. The volume injected is therefore 100 μl. The sucrase […] was supplied free of charge by D. Bar Shalom Bulk Medic, Denmark.
After sacrifice of the animal, the EDL muscles of the treated paw and the contralateral paw are weighed. Since individual variations in the weight of normal muscles in animals of the same age can reach 20%, the results were standardized by calculating the ratio of the treated muscle to its contralateral intact control.
This ratio was considered to be 100% for the muscles treated by PBS alone. The degree of regeneration of muscles treated by the different substances was calculated in % of the muscle injected by PBS.

FGF 1 = assay: potentialization of FGF 1 biological activity, tritiated thymidine incorporation in CCL39 cells; type: cell-based
Description: (§1) The cells used in this example are CCL39 cells from the American Tissue Culture Collection. The conditions concerning culture and the measurement test of FGF biological activity are the same as those described in the publication by Tardieu and coll. in the Journal of Cellular Physiology, 1992. The FGF growth factors used are the FGF 1 and FGF 2 recombinant forms.
(§2) In these experiments, the FGF 1 or 2 is used at a dose corresponding to the effective dose (called ED50) in order to induce a stimulation of the biological activity of 50% of the dose inducing the maximum stimulation. The biological activity is measured by the ability to induce an increase of the incorporation of tritiated thymidine in the cells according to protocols extensively described in numerous publications such as the previously mentioned publication by Tardieu et coll. and also in French Patent 2 644 066. […] In addition to this ability to potentialize the biological activity of the FGFs, the HBGFPPs protect the FGFs against thermal degradations and the inactivation induced by the proteolytic action of trypsin (FIGS. 3 to 5). Similarly, these HBGFPPs protect FGF1 and 2 against an inactivation induced by the proteolytic activity of trypsin (5A and 5B).

FGF 2 = assay: potentialization of FGF 2 biological activity, tritiated thymidine incorporation in CCL39 cells; type: cell-based
Description: as §1, §2

FGF1 = assay: protection of FGF1 against thermal degradation, activity on CCL39 cells; type: cell-based; conditions: 20 μg heparin, 10 μg mesoglycan or sulodexide; 20° C. and 37° C. for 1, 7, 15, 30 days
Experimental: (§3) (a) and 37° C. (b) for 1, 7, 15, 30 days. The measurement of the biological activity presented in abscissa corresponds to the stimulation unit values (ED50) of the incorporation of tritiated thymidine in CCL39 cells.
as §2

125I-FGF2 = assay: protection of 125I-FGF2 against proteolytic degradation by trypsin, gel autoradiography; type: biochemical; conditions: 37° C., FIG. 5B
Experimental: (§4) Proteolytic digestion was carried out at 37° C. and the samples were separated by 18% polyacrylamide gel electrophoresis. The gels are dried and autoradiographed. The first track contains the ^125 I-FGF1 on its own.
The arrangement of the tracks is identical to that presented for the ^125 I-FGF1 in FIG. 5A.

leukocytic elastase [4] = assay: inhibition of leukocytic elastase activity; type: biochemical; conditions: 37° C., pH 8, elastase 8.3 nM, 0.10 mM MeO-Suc-Ala-Ala-Pro-Val-pNA
Experimental: The purified leukocytic elastase was obtained by Elastin Products Co (Owenville, Mo., U.S.A.) and the plasmin from SIGMA.
The enzymes under consideration are placed in solution in a 100 mM Tris-HCL buffer, pH 8 for the elastase and pH 7.4 for the plasmin, in the presence of 0.02% sodium azide and 0.01% Triton X100 for the plasmin. The substrate and enzyme concentrations are: 0.10 mM MeO-Suc-Ala-Ala-Pro-Val-pNA (paranitroanilide)for the elastase at 8.3 nM, and 0.20 mM dVal-Leu-dLys-pNA for the plasmin at 77 nM. The IC50 is determined for each of the conditions.
Batch EM5 corresponds to a T10 dextran of […]. The intermediate products of synthesis are identified by the symbols given above with an index number specifying the number of each substitution reaction.

125I-FGF1 = assay: protection of 125I-FGF1 against proteolytic degradation by trypsin, gel autoradiography; type: biochemical; conditions: 37° C., FIG. 5A
Experimental: as §4

FGF2 = assay: protection of FGF2 against thermal degradation, activity on CCL39 cells; type: cell-based; conditions: 20 μg heparin, 10 μg mesoglycan or sulodexide; 20° C. and 37° C. for 1, 7, 15, 30 days
Experimental: as §3, §2

complement system = assay: anticomplement activity (CH50); conditions: measured according to Mauzac et al.
trypsin = trypsin enzymatic activity on substrate S.87
Experimental: The enzymatic activity of trypsin was measured by spectrophotometric absorption of the transformation product of S 87 in versus of the incubation time.

[5] = single injection of 200 μl of 50 μ/ml, after 8 days of regeneration
[6] = beta TGF 50 ng + polymer 5000 μg + trypsin 500 μg
[7] = beta TGF 50 ng + polymer 5000 μg, no trypsin
[8] = 10 μg/ml mesoglycan or 20 μg/ml heparin, CCL39 cells

T1 sequence (P01137 279-390 limits assumed): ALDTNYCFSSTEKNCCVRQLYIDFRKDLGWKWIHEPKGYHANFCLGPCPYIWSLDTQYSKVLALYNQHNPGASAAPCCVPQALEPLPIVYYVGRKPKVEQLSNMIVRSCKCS

With dextran sulfate the Diameter of muscles (EDL muscles [1]; [5]) was 3.9 ± 0.4 mm, the “Mean diameter of regenerated fibers” value (EDL muscles [1]; [5]) was 28.2 ± 4.6 and the “Number of fibers on a half-section” value (EDL muscles [1]; [5]) was 418. For the same molecule, the “muscular regeneration after crushing, macroscopic and histological findings (in words)” value (EDL muscles [1]; single injection, 8 days of regeneration) was “no qualitative or quantitative modification of muscular regeneration; also recorded: neither heparin nor dextran sulfate present properties on muscular regeneration”, the “protection of the beta TGF against proteolysis induced by trypsin (in words)” value (from here on “protection of the beta TGF … (in words)”) (beta TGF) was “neither sucrase, nor heparin nor dextran sulfate protect the beta TGF” and the “Protection of the beta TGF (beta TGF biological activity)” value (beta TGF; [6]) was 0%. The “Protection of the beta TGF (beta TGF biological activity)” value (beta TGF; [7]) was 100%.

For heparin, the “PROTECTION (in %) of the FGF” value (FGF) is listed as 100%, the anticoagulant activity (coagulation) is listed as 175 IU/mg and the Ki (leukocytic elastase [2]) is listed as roughly 1 nM. For the same molecule, the “Ratio regenerated/ contralateral intact (muscle weight)” value (EDL muscles [3]) was 0.590, the “% ratio treated/ ratio degenerated” value (EDL muscles [3]) was 86% and the “muscular repair and regeneration (in words)” value (EDL muscles [3]; rat, in vivo) was “neither heparin nor dextran sulfate present properties on muscular regeneration”. For the same molecule, the “ED50 of FGF 1 in the presence of the polymer” value (FGF 1; [8]) was 0.4 ng/mL, the “potentialization of the biological activity of FGF1 (in words)” value (FGF 1; 20 μg of heparin, 10 μg of mesoglycan or 10 μg of sulodexide, FIG. 2A) was “potentialization of the biological activity” and the “ED50 of FGF 2 in the presence of the polymer” value (FGF 2; [8]) was 0.2 ng/mL. For the same molecule, the “potentialization of the biological activity of FGF2 (in words)” value (FGF 2; 20 μg of heparin, 10 μg of mesoglycan or 10 μg of sulodexide, FIG. 2B) was “potentialization of the biological activity”, the “protective effect against thermal degradation of FGF1 (in words)” value (FGF1) was “protective effect” and the “protective effect against proteolytic degradation of 125I-FGF2 (in words)” value (125I-FGF2) was “protective effect”. For the same molecule, the “Leukocytic elastase IC50” value (leukocytic elastase [4]) was 1800 ng/mL, the “protection of the beta TGF … (in words)” value (beta TGF) was “neither sucrase, nor heparin nor dextran sulfate protect the beta TGF” and the “biological activity of the beta TGF still present” value (beta TGF; after 10 min of incubation at 37° C. with trypsin) was “less than 20%”. The “% inhibiting activity of the incorporation of tritiated thymidine in CCL64 cells” value (from here on “% inhibiting activity”) (beta TGF; [6]) was 10%, the “% inhibiting activity” value (beta TGF; [7]) was 100% and the “% inhibiting activity” value (beta TGF; polymer 5000 μg alone, no beta TGF, no trypsin) was 0%. For the same molecule, the “protective effect against proteolytic degradation of 125I-FGF1 (in words)” value (125I-FGF1) was “protective effect” and the “protective effect against thermal degradation of FGF2 (in words)” value (FGF2) was “protective effect”.

For “carboxymethyl dextran benzylamide sulfonate [CMDBS]”, the anticoagulant activity (coagulation) was 4 IU/mg, the “anticomplement activity, CH50” value (complement system) was 1.1 µg and the “inhibiting power on the activity of trypsin (in words)” value (trypsin) was “no inhibiting power”. For the same molecule, the trypsin activity (trypsin; Trypsin 10 ug/ml + S87 + 5 ug/ml CMDBS) was 100, the trypsin activity (trypsin; Trypsin 10 ug/ml + S87 + 50 ug/ml CMDBS) was 100 and the trypsin activity (trypsin; Trypsin 10 ug/ml + S87 + 500 ug/ml CMDBS) was 100.

In the case of dextran, the “Protection of the beta TGF (beta TGF biological activity)” value (beta TGF; [6]) is reported as 0% and the “Protection of the beta TGF (beta TGF biological activity)” value (beta TGF; [7]) is reported as 100%.

For “FGF 1: FGF 1 recombinant form growth factor”, the “ED50 of FGF 1” value (FGF 1; FGF 1 alone, CCL39 cells) was 5 ng/mL.

For “FGF 2: FGF 2 recombinant form growth factor”, the “ED50 of FGF 2” value (FGF 2; FGF 2 alone, CCL39 cells) was 3 ng/mL.

In the case of `O=S(=O)(O)OC[C@H]1O[C@@](COS(=O)(=O)O)(O[C@H]2O[C@H](COS(=O)(=O)O)[C@@H](OS(=O)(=O)O)[C@H](OS(=O)(=O)O)[C@H]2OS(=O)(=O)O)[C@@H](OS(=O)(=O)O)[C@@H]1OS(=O)(=O)O` [sucrase, sucrose octasulfate], the “Ratio regenerated/ contralateral intact (muscle weight)” value (EDL muscles [3]) is reported as 0.620, the “% ratio treated/ ratio degenerated” value (EDL muscles [3]) is reported as 87% and the “protection of the beta TGF … (in words)” value (beta TGF) is reported as “neither sucrase, nor heparin nor dextran sulfate protect the beta TGF”.

B1: STBI: trypsin inhibitor originating from soya, from Sigma (protein, UniProt P01070 25-205, looked up)
Trypsin inhibitor A: DFVLDNEGNPLENGGTYYILSDITAFGGIRAAPTGNERCPLTVVQSRNELDKGIGTIISSPYRIRFIAEGHPLSLKFDSFAVIMLCVGIPTEWSVVEDLPEGPAVKIGENKDAMDGWFRLERVSDDEFNNYKLVFCPQQAEDDKCGDIGISIDHDDGTRRLVVSKNKPLVVQFQKLDKESL
In the case of B1, the trypsin activity (trypsin; Trypsin + S87 + STBI) is reported as 0.
